Experimental data from PMC9968064, “First Synthesis of DBU-Conjugated Cationic Carbohydrate Derivatives and Investigation of Their Antibacterial and Antifungal Activity” (International Journal of Molecular Sciences, 2023).
Entries after “also recorded” stand apart in the source; their conditions may differ. Like-named read-outs stand apart in the source and are kept apart here.

Assays:
[1] = system: Escherichia coli (ATCC 8739); parameters: method as in PMID 24144185; conditions: reference antibiotics; cited from earlier work
[2] = system: Staphylococcus aureus ssp. aureus (ATCC 6538); parameters: method as in PMID 22866984; conditions: reference antibiotics; cited from earlier work
[3] = system: Staphylococcus aureus ssp. aureus (ATCC 6538); test: MIC determination (antibacterial susceptibility test, CLSI / Hungarian Pharmacopeia); type: cell-based; conditions: for MIC: Staphylococcus aureus, ATCC6538, tested range 6.25–100 µg/mL
Procedure: (§1) The antimicrobial activity of twenty-two cationic hexopyranoside-amidinium salts (3, 10, 11, 12, 21, 22, 23, 24, 29, 30, 32, 37, 38, 45, 46, 47, 48, 49, 50, 51, 52 and 53) were compared in susceptibility tests (Table 2). The effectiveness of all compounds was tested on Staphylococcus aureus ssp. aureus (ATCC 6538), Escherichia coli (ATCC 8739) and Candida albicans (ATCC 10231). We tested the antimicrobial activity of the compounds at the concentration range of 6.25–100 µg/mL.
(§2) The detection of the antibacterial and antifungal effects of the tested compounds and the determination of the minimum inhibitory concentration (MIC) were carried out based on the method of CLSI [48] and Hungarian Pharmacopeia (chapters VIII. 2.6.12–13.).
(§3) For the antimicrobial studies, we used three human pathogens as test organisms: Candida albicans (ATCC 10231), Staphylococcus aureus subspecies aureus (ATCC 6538) and Escherichia coli (ATCC 8739).
(§4) Staphylococcus aureus subspecies aureus and Escherichia coli were cultured on tryptic soya agar (TSA) for 18–24 h at 37 °C. Candida albicans was cultured on Sabouraud dextrose agar (SDA) for 18–24 h at 37 °C. To obtain cells for suspension, we made cell suspensions from Staph. aureus, E. coli and C. albicans with the cotton swab suspension technique. The dilution of suspension was then made with 0.85% NaCl solution, absorbance being set to A600nm = 0.06. a volume of 10 μL of these suspensions contained ~4.5–6.0 × 10^4 colony forming unit (CFU) (bacteria) and ~1.5–2.0 × 10^3 CFU for yeast.
(§5) Tested agents were diluted with DMSO; the concentration of stock solutions was 4 mg/mL; and to ensure sterility, the closed sample containers were incubated at 35 °C for 1 h. The highest final concentration was 100 μg/mL.
(§6) Testing was performed in 24-well plates, and cell suspensions were prepared with 0.85% NaCl solution. Stock solutions were made from the agents with DMSO (100%). Final concentrations of used compounds were 6.25–100 µg/mL. […] After inoculation, plates were incubated at 35 °C, and results were then read visually after 18–24 h. If microbial growth could not be detected, results were read visually after 72 h. If there was no growth after 72 h, incubation was continued till the fifth day of the experiment and the results were read visually and with plate reader at 600 nm after 120 h.
(§7) The MIC value of a compound was defined as the minimal concentration that inhibits the growth of bacteria and yeasts comparing to the control. The results of the antibacterial and antifungal tests were read visually after 24, 48, 72 and 120 h. The microbial growth was measured by plate reader at 600 nm after 120 h.

[4] = system: Escherichia coli (ATCC 8739); test: as above; type: cell-based; conditions: Escherichia coli, ATCC8739, tested range 6.25–100 µg/mL
Procedure: as §1, §2, §3, §4, §5, §6, §7

[5] = system: HaCaT (human keratinocyte) cell line; test: MTT viability test on HaCaT cells; type: cell-based; conditions: 24 h; for IC50: Homo sapiens, HaCaT, 50–3.125 µg/mL; for effect on HaCaT cell viability at antibacterially and antifungally active concentrations: ≤6.25 µg/mL
Procedure: The cytotoxic effect of six selected compounds (3, 10, 12, 21, 22 and 29) with promising antimicrobial activity was studied on HaCaT (human keratinocyte) cell lines. Using the MTT-test, we determined the viability of the cells (Figure 3), and the half maximal inhibitory concentration (IC50) values of the compounds are summarized in Table 4. The duration of tests was 24 h; the examined concentrations were: 50–25–12.5–6.25–3.125 µg/mL. The IC50 value of a compound was defined as the concentration that inhibits cell growth by 50% relative to the control. […], the medium containing the inhibitor was removed, and 10 μL MTT solution was added to the cells. The plates were then incubated for two hours at 37 °C. The medium from the wells was then carefully aspirated, and MTT formazan dissolved with 100 μL of DMSO aided by gentle agitation on a shaker. After 10 min at room temperature, the absorbances were read at 570 nm by an automatic plate reader. The percentage of viability reflecting the respiratory potential of the cell population in each well was expressed as (absorbance of treated cells/absorbance of control cells) × 100. IC50 values of tested agents were determined by Graphpad (Prism) semi-log line fitting (graphpad.com (8)). The MTT test was performed after treatment and removal of inhibitors followed by the addition of 10 μL of MTT solution to the cells. We tested the toxic effect of compounds 3, 10, 12, 21, 22 and 29 on HaCaT cell line. HaCaT is a spontaneously transformed, aneuploid keratinocyte, an adherent cell type derived from the epithelium of Human […] adult skin. The cell line was immortalized in 1986 under low calcium and high-temperature conditions. Cells were cultured in DMEM medium (iBiotech, Szigetszentmiklós, Hungary) containing 10% fetal bovine serum (FBS, iBiotech, Szigetszentmiklós, Hungary) and 1% antibiotic-antimycotic mix (Penicillin–Streptomycin–Neomycin).

[6] = system: rat red blood cells; test: Hemolytic activity on rat red blood cells; type: cell-based, Sprague-Dawley rat; conditions: 15 min, 37 °C; for hemolysis compared to negative control PBS: 6.25 µg/mL; for hemolysis (haemoglobin release): 50 and 100 µg/mL, comparable to water positive control
Procedure: The hemolytic activity of compounds 10 and 22 was determined on freshly isolated rat red blood cells (Figure 4).
Blood was collected from a Sprague-Dawley rat into an EDTA tube. Erythrocytes were separated from blood by centrifugation at 1800 rpm for 8 min, washed 3 times with phosphate buffered saline (PBS), and resuspended in PBS. Aliquots of the cell suspension with the respective red blood cell number of 7 × 10^7 were added to PBS containing increasing concentrations of the test compounds or the vehicle DMSO. After gently mixing, each mixture was incubated at 37 °C for 15 min. The released hemoglobin into the supernatant was separated by a rapid centrifugation at 5000 rpm for 5 min. Finally, the absorbance of the released hemoglobin was measured at 540 nm using a Multiskan Go (ThermoFisher, Waltham, MA, USA) microplate reader. The absorbance values were compared to the absorbance of the sample kept in purified water during the incubation as positive control and given as percent hemolysis.

[7] = system: Candida albicans (ATCC 10231); test: MIC determination (antifungal susceptibility test); type: cell-based; conditions: for MIC: Candida albicans
Procedure: as §1, §2, §3, §4, §5
Testing was performed in 24-well plates, and cell suspensions were prepared with 0.85% NaCl solution. Stock solutions were made from the agents with DMSO (100%). […] […] After inoculation, plates were incubated at 35 °C, and results were then read visually after 18–24 h. If microbial growth could not be detected, results were read visually after 72 h. If there was no growth after 72 h, incubation was continued till the fifth day of the experiment and the results were read visually and with plate reader at 600 nm after 120 h.
as §7

[8] = system: Lactobacillus plantarum subsp. plantarum (ATCC 14917); test: Membrane permeabilization by SYTOX green staining; type: cell-based; conditions: 6.25 µg/mL; for membrane permeabilization (cellular fluorescence of SYTOX green): Figure 5
Procedure: In membrane permeabilization experiments, the Gram-positive Lactobacillus plantarum was used to test the effect of compounds 10 and 22 at 6.25 µg/mL for 48 h. Bacterial cells were stained with SYTOX green (SG) fluorescent dye, which is impermeable on intact membranes but easily penetrates through compromised membranes.
Lactobacillus plantarum subsp. plantarum (ATCC 14917) was purchased from ATCC (Manassas, VA, USA). The membrane permeabilization ability of compounds 10 and 22 was tested on L. plantarum and determined in the brain heart infusion medium (BHI) (CliniChem Ltd., Budapest, Hungary). Bacterial cells were treated with the test compounds at the final concentration of 6.25 µg/mL and samples were taken at 1, 4, 8, 24 and 48 h. Samples were stained with SYTOX green fluorescent dye (ThermoFischer Scientific, Budapest, Hungary) at 1 µM final concentration for 30 min at 37 °C, and flow cytometric measurements were carried out with a Guava Easy Cyte 6HT-2L flow cytometer (Merck Ltd., Darmstadt, Germany). Green (525/30 nm) and red (695/50 nm) fluorescence channels were used to gate out the cells on a green versus red dot plot. The ratio of the SYTOX green (SG) positive bacterial cells was evaluated.

[9] = ATCC10231, 10× diluted, tested range 0.625–10.0 µg/mL, read-out: MIC Candida albicans (ATCC 10231), lower concentrations
[10] = ATCC10231, tested range 6.25–100 µg/mL, read-out: MIC Candida albicans (ATCC 10231)

Row | Compound | MIC Escherichia coli (ATCC 8739) [1] | MIC Staphylococcus aureus (ATCC 6538) [2] | MIC [3] [µg/mL] | MIC [4] [µg/mL] | cytotoxic effect on HaCaT cells (in words) [5] | IC50 [5] [µg/mL] | hemolysis compared to negative control PBS [6] | hemolysis (haemoglobin release) [6] | MIC Candida albicans (ATCC 10231), lower concentrations ([7]; 10× diluted, tested range 0.625–10.0 µg/mL) [µg/mL] | MIC [7, 9] [µg/mL] | MIC [7, 10] [µg/mL] | membrane permeabilization (cellular fluorescence of SYTOX green) [8] | ratio of SYTOX green (SG) positive cells ([8]; after 1 h of incubation) | ratio of SYTOX green (SG) positive cells ([8]; after 4 h of incubation) | effect on HaCaT cell viability at antibacterially and antifungally active concentrations [5] | MIC Staphylococcus aureus (ATCC 6538) ([3]; tested range 6.25–100 µg/mL) [µg/mL]
1 | CC(C)(O/N=C(\C(=O)N[C@@H]1C(=O)N2C(C(=O)[O-])=C(C[n+]3ccccc3)CS[C@H]12)c1csc(N)n1)C(=O)O [Ceftazidime] | 8 [42] µg/mL | 8 [43, 44, 45] µg/mL | – | – | – | – | – | – | – | – | – | – | – | – | – | –
2 | CO[C@H]1O[C@H](C[N+]2=C3CCCCCN3CCC2)[C@@H](OCc2ccccc2)[C@H](OC(=O)c2ccccc2)[C@H]1OC(=O)c1ccccc1 [Compound 3, 8-N-[methyl 6-deoxy-6-yl-2,3-di-O-benzoyl-4-O-benzyl-α-D-glucopyranoside]-1,8-diazabicyclo(5.4.0)undec-7-ene-iodide] | – | – | 6.25 to 50 | > 100 | strongest cytotoxic effect | 0.13 ± 0.06 | – | – | – | – | – | – | – | – | – | –
3 | CCS[C@H]1O[C@H](C[N+]2=C3CCCCCN3CCC2)[C@@H](OCc2ccc3ccccc3c2)[C@H](OCc2ccccc2)[C@H]1OCc1ccccc1 [Compound 10] | – | – | < 6.25 | ≥ 100 | only slight cytotoxicity; also recorded: greatly reduced toxicity | 15.3 ± 0.78 | did not cause significant hemolysis | significantly increased the hemolysis; also recorded: significant haemoglobin release | 5.0 | 5 | < 6.25 | increased membrane permeabilization | increased the ratio of SG-positive cells | drastically increased | hardly affected the cell viability | –
4 | CCS[C@H]1O[C@H](C[N+]2=C3CCCCCN3CCC2)[C@@H](OCc2ccc3ccccc3c2)[C@H](OC(=O)c2ccccc2)[C@H]1OCc1ccccc1 [Compound 12] | – | – | < 6.25 | > 100 | significant toxic effect; also recorded: cytotoxic | 4.26 ± 0.16 | – | – | – | – | – | – | – | – | – | –
5 | c1ccc(CO[C@H]2[C@@H](OCc3ccc4ccccc4c3)[C@H](OCc3ccccc3)[C@@H](C[N+]3=C4CCCCCN4CCC3)O[C@@H]2Sc2ccccc2)cc1 [Compound 21] | – | – | 6.25 to 50 | > 100 | significant toxic effect; also recorded: cytotoxic | 1.02 ± 0.06 | – | – | – | – | – | – | – | – | – | –
6 | c1ccc(CO[C@@H]2[C@H](OCc3ccccc3)[C@@H](Sc3ccccc3)O[C@H](C[N+]3=C4CCCCCN4CCC3)[C@H]2OCc2ccc3ccccc3c2)cc1 [Compound 22] | – | – | < 6.25 | ≥ 100 | only slight cytotoxicity; also recorded: greatly reduced toxicity | 10.3 ± 0.41 | did not cause significant hemolysis | significantly increased the hemolysis; also recorded: significant haemoglobin release | – | 2.5 | < 6.25 | increased membrane permeabilization | increased the ratio of SG-positive cells | drastically increased | hardly affected the cell viability | –
7 | CCS[C@H]1O[C@H](C[N+]2=C3CCCCCN3CCC2)[C@@H](OCc2ccc3ccccc3c2)[C@@H](OCc2ccccc2)[C@H]1OCc1ccccc1 [Compound 29] | – | – | 6.25 to 50 | > 100 | only slight cytotoxicity; also recorded: greatly reduced toxicity | 11.9 ± 0.25 | – | – | – | 2.5 | < 6.25 | – | – | – | – | <12.5
